Patent publication US10961200B2, “Small molecule inhibitors of lactate dehydrogenase and methods of use thereof” (THE UNITED STATES OF AMERICA, AS REPRESENTED BY THE …, priority 2014, dated 2021)
pIC50: −log10 of the molar value.

What follows are molecules tested against Human LDHA (Homo sapiens (Human), UniProt P00338) (assay: human LDHA primary biochemical assay (resazurin/diaphorase coupled, fluorescence)). Details: LDHA inhibitory activity, activity level based on IC50 (Table 7).
Excerpt: Test compounds were placed in a Greiner Bio-One (Monroe, N.C.) 1536-well black solid bottom assay plate. 200 millimolar (mM) Tris HCl, pH 7.4, 100 micromolar […] EDTA and 0.01% TWEEN-20™, final concentration, was used as the assay buffer. The LDHA reagent was 2 nanomolar (nM) Human LDHA (Meridian Life Science, Inc., Memphis, Tenn.), final concentration, in assay buffer.

Structure (SMILES)	pIC50
Cc1ccc(-c2nn(-c3nc(C(=O)O)cs3)cc2Cc2ccc(S(N)(=O)=O)cc2)cc1-c1cc(F)cc(F)c1 [Compound 489, 2-(3-(3′,5′-difluoro-6-methyl-[1,1′-biphenyl]-3-yl)-4-(4-sulfamoylbenzyl)-1H-pyrazol-1-yl)thiazole-4-carboxylic acid]	6.00 to 7.00
CCOC(=O)c1csc(-n2nc(-c3ccc(F)c(C#CC4CCCC4)c3)c(Cc3cccc(S(N)(=O)=O)c3)c2CC2CC2)n1 [Compound 536, ethyl 2-(3-(3-(cyclopentylethynyl)-4-fluorophenyl)-5-(cyclopropylmethyl)-4-(3-sulfamoylbenzyl)-1H-pyrazol-1-yl)thiazole-4-carboxylate]	< 4.24
Cc1ccc(-c2cccc(-c3nn(-c4nc(C(=O)O)cs4)c(C4CC4)c3Cc3ccc(S(N)(=O)=O)c(F)c3)c2)cc1 [Compound 347]	> 7.00
NS(=O)(=O)c1ccc(Cc2c(-c3cccc(-c4cccc(F)c4)c3)nn(-c3nc(C(=O)O)cs3)c2C2CC2)cc1F [Compound 351]	> 7.00
COc1cccc(-c2cc(-c3nn(-c4nc(C(=O)O)cs4)c(C4CC4)c3Cc3ccc(S(N)(=O)=O)cc3)ccc2F)c1 [Compound 483, 2-(5-cyclopropyl-3-(6-fluoro-3′-methoxy-[1,1′-biphenyl]-3-yl)-4-(4-sulfamoylbenzyl)-1H-pyrazol-1-yl)thiazole-4-carboxylic acid]	> 7.00
NS(=O)(=O)c1ccc(Cc2cnn(-c3nc(C(=O)O)cs3)c2-c2ccc3ccccc3c2)cc1 [Compound 474, 2-(5-(naphthalen-2-yl)-4-(4-sulfamoylbenzyl)-1H-pyrazol-1-yl)thiazole-4-carboxylic acid]	> 7.00
COc1cccc(-c2cccc(-c3nn(-c4nc(C(=O)O)cs4)c(C4CC4)c3Cc3ccc(S(N)(=O)=O)cc3F)c2)c1 [Compound 361]	> 7.00
Cc1ccc(-c2nn(-c3nc(C(=O)O)cs3)c(C3CC3)c2Cc2ccc(S(N)(=O)=O)cc2)cc1-c1cccc(N)c1 [Compound 500, 2-(3-(3′-amino-6-methyl-[1,1′-biphenyl]-3-yl)-5-cyclopropyl-4-(4-sulfamoylbenzyl)-1H-pyrazol-1-yl)thiazole-4-carboxylic acid]	> 7.00
NS(=O)(=O)c1ccc(Cc2c(-c3cccc4cc(F)ccc34)nn(-c3nc(C(=O)O)cs3)c2O)cc1 [Compound 454, 2-(3-(6-fluoronaphthalen-1-(57%)yl)-5-hydroxy-4-(4-sulfamoylbenzyl)-1H-pyrazol-1-yl)thiazole-4-carboxylic acid]	4.24 to 6.00
Cc1ccc(-c2cc(-c3nn(-c4nc(C(=O)O)cs4)c(C4CC4)c3Cc3ccc(S(N)(=O)=O)cc3)ccc2F)cc1 [Compound 484, 2-(5-cyclopropyl-3-(6-fluoro-4′-methyl-[1,1′-biphenyl]-3-yl)-4-(4-sulfamoylbenzyl)-1H-pyrazol-1-yl)thiazole-4-carboxylic acid]	> 7.00
N[S+](=O)([O-])c1ccc(Cc2c(-c3ccc(F)c(-c4ccc(F)cc4)c3)nn(-c3nc(C(=O)O)cs3)c2CC2CC2)c(F)c1 [Compound 364]	> 7.00
Cc1ccc(-c2nn(-c3nc(C(=O)O)cs3)cc2Cc2ccc(S(N)(=O)=O)cc2)cc1-c1ccncc1 [Compound 490, 2-(3-(4-methyl-3-(pyridin-4-yl)phenyl)-4-(4-sulfamoylbenzyl)-1H-pyrazol-1-yl)thiazole-4-carboxylic acid]	6.00 to 7.00

Same assay, conditions: LDHA inhibitory activity, assay of Example 1; activity level classes

Structure (SMILES)	pIC50
NS(=O)(=O)c1ccc(Cc2c(-c3ccccc3)nn(-c3nc(C(=O)O)cs3)c2I)cc1 [Compound 45, 2-(5-iodo-3-phenyl-4-(4-sulfamoylbenzyl)-1H-pyrazol-1-yl)thiazole-4-carboxylic acid]	> 7.00
N[S+](=O)([O-])c1ccc(Cc2c(-c3cccc(-c4ccc(F)cc4)c3)nn(-c3nc(C(=O)O)cs3)c2C(F)(F)F)cc1 [Compound 312]	> 7.00
O=C(O)c1csc(-n2cc(-c3ccc(F)c(F)c3)c3cccc(O)c32)n1 [Compound 125, 2-(3-(3,4-difluorophenyl)-7-hydroxy-1H-indol-1-yl)thiazole-4-carboxylic acid]	< 4.24
CCOC(=O)OC(C)OC(=O)c1csc(-n2nc(-c3ccc(F)c(F)c3)cc2OC(C)OC(=O)OCC)n1 (stereo not shown) [Compound 98, 1-((ethoxycarbonyl)oxy)ethyl 2-(3-(3,4-difluorophenyl)-5-(1-((ethoxycarbonyl)oxy)ethoxy)-1H-pyrazol-1-yl)thiazole-4-carboxylate]	< 4.24
Nc1c(Cc2ccc(S(N)(=O)=O)cc2)c(-c2ccccc2)nn1C(=O)c1cccc2cc[nH]c12 [Compound 150, 4-((5-ammo-1-(1H-indole-7-carbonyl)-3-phenyl-1H-pyrazol-4-yl)methyl)benzenesulfonamide]	< 4.24
Nc1c(Cc2ccc(S(N)(=O)=O)cc2)c(-c2ccc(F)c(F)c2)nn1-c1nc(C(=O)O)cs1 [Compound 38, 2-(5-amino-3-(3,4-difluorophenyl)-4-(4-sulfamoylbenzyl)-1H-pyrazol-1-yl)thiazole-4-carboxylic acid]	> 7.00
COc1cccc(-c2cc(-c3nn(-c4nc(C(=O)O)cs4)c(C(F)(F)F)c3Cc3ccc(S(N)(=O)=O)cc3)ccc2F)c1 [Compound 242]	> 7.00
COC(=O)c1csc2c1c(=O)[nH]c1cc(-c3ccc(F)c(F)c3)nn12 [Compound 115, methyl 2-(3,4-difluorophenyl)-5-oxo-4,5-dihydropyrazolo[1,5-a]thieno[3,2-e]pyrimidine-6-carboxylate]	< 4.24
O=C(O)c1csc(-n2cc(-c3ccc(F)c(F)c3)c3cccnc32)n1 [Compound 23, 2-(3-(3,4-difluorophenyl)-1H-pyrrolo[2,3-b]pyridin-1-yl)thiazole-4-carboxylic acid]	< 4.24
O=C(O)c1csc(-n2cc(Cc3ccc(CO)cc3)c(-c3ccccc3)n2)n1 [Compound 199, 2-(4-(4-(hydroxymethyl)benzyl)-3-phenyl-1H-pyrazol-1-yl)thiazole-4-carboxylic acid]	< 4.24
NS(=O)(=O)c1ccc(Cc2c(-c3ccc(F)c(-c4ccc(F)cc4)c3)nn(-c3nc(C(=O)O)cs3)c2C2CC2)cc1F [Compound 250]	> 7.00
CN(C)C(=O)Oc1cc(-c2ccc(F)c(F)c2)nn1-c1nc(C(=O)Oc2ccc3c(c2)CCC3)cs1 [Compound 107, 2,3-dihydro-1H-inden-5-yl 2-(3-(3,4-difluorophenyl)-5-((dimethylcarbamoyl)oxy)-1H-pyrazol-1-yl)thiazole-4-carboxylate]	< 4.24

Same assay, conditions: read-out: Inhibitory activity IC50

Structure (SMILES)	pIC50
O=C(O)c1csc(-n2cc(Cc3ccc(CO)cc3)c(-c3cccc(-c4ccccc4)c3)n2)n1 [Compound 200, 2-(3-([1,1′-biphenyl]-3-yl)-4-(4-(hydroxymethyl)benzyl)-1H-pyrazol-1-yl)thiazole-4-carboxylic acid]	4.24 to 6.00
NS(=O)(=O)c1ccc(Cc2c(C3CCCCC3)nn(-c3nc(C(=O)O)cs3)c2-c2ccccc2)cc1 [Compound 176, 2-(3-cyclohexyl-5-phenyl-4-(4-sulfamoylbenzyl)-1H-pyrazol-1-yl)thiazole-4-carboxylic acid]	4.24 to 6.00
NS(=O)(=O)c1ccc(Cc2c(-c3ccccc3)nn(-c3nc(C(=O)O)cs3)c2Cc2nnn[nH]2)cc1 [Compound 87, 2-(5-((1H-tetrazol-5-yl)methyl)-3-phenyl-4-(4-sulfamoylbenzyl)-1H-pyrazol-1-yl)thiazole-4-carboxylic acid]	4.24 to 6.00
CCOC(=O)c1coc(-n2nc(-c3ccccc3)c(Cc3ccc(S(N)(=O)=O)cc3)c2N)n1 [Compound 151, ethyl 2-(5-amino-3-phenyl-4-(4-sulfamoylbenzyl)-1H-pyrazol-1-yl)oxazole-4-carboxylate]	4.24 to 6.00
NS(=O)(=O)c1ccc(Cc2cn(-c3nc(C(=O)O)cs3)c3cc(C(=O)N4CCOCC4)ccc23)cc1 [Compound 37, 2-(6-(morpholine-4-carbonyl)-3-(4-sulfamoylbenzyl)-1H-indol-1-yl)thiazole-4-carboxylic acid]	4.24 to 6.00
Cc1csc(-c2cc(-c3c(Cc4ccc(S(N)(=O)=O)cc4F)c(CC4CC4)nn3-c3nc(C(=O)O)cs3)ccc2F)c1 [Compound 222, 2-(3-(cyclopropylmethyl)-5-(4-fluoro-3-(4-methylthiophen-2-yl)phenyl)-4-(2-fluoro-4-sulfamoylbenzyl)-1H-pyrazol-1-yl)thiazole-4-carboxylic acid]	< 4.24
NS(=O)(=O)c1ccc(Cc2c(-c3ccccc3)nn(-c3nc(C(=O)O)cs3)c2-c2ccccc2)cc1 [Compound 155, 2-(3,5-diphenyl-4-(4-sulfamoylbenzyl)-1H-pyrazol-1-yl)thiazole-4-carboxylic acid]	> 7.00
NS(=O)(=O)c1ccc(Cc2c(-c3ccccc3)nn(-c3nc(C(=O)O)cs3)c2C2CO2)cc1 (stereo not shown) [Compound 178, 2-(5-(oxiran-2-yl)-3-phenyl-4-(4-sulfamoylbenzyl)-1H-pyrazol-1-yl)thiazole-4-carboxylic acid]	4.24 to 6.00
NS(=O)(=O)c1ccc(Cc2cn(-c3nc(C(=O)O)cs3)c3cc(C(F)(F)F)ccc23)cc1 [Compound 197, 2-(3-(4-sulfamoylbenzyl)-6-(trifluoromethyl)-1H-indol-1-yl)thiazole-4-carboxylic acid]	6.00 to 7.00
NS(=O)(=O)c1ccc(Cc2c(C3CC3)nn(-c3nc(C(=O)O)cs3)c2-c2cccc(-c3ccccc3)c2)c(F)c1 [Compound 182]	4.24 to 6.00
NS(=O)(=O)c1ccc(Cc2c(-c3ccccc3)nn(-c3nc(C(=O)O)cs3)c2C2CCCC2)cc1 [Compound 175, 2-(5-cyclopentyl-3-phenyl-4-(4-sulfamoylbenzyl)-1H-pyrazol-1-yl)thiazole-4-carboxylic acid]	6.00 to 7.00
N[S+](=O)([O-])c1ccc(Cc2c(CC(F)(F)F)nn(-c3nc(C(=O)O)cs3)c2-c2cccc(-c3ccccc3)c2)cc1 [Compound 303]	4.24 to 6.00
NS(=O)(=O)c1ccc(Cc2c(CC3CC3)nn(-c3nc(C(=O)O)cs3)c2-c2ccccc2)cc1 [Compound 188, 2-(3-(cyclopropylmethyl)-5-phenyl-4-(4-sulfamoylbenzyl)-1H-pyrazol-1-yl)thiazole-4-carboxylic acid]	6.00 to 7.00
